The source of these data is patent US9067966B2, “Lupeol-type triterpene derivatives as antivirals” (priority 2009, dated 2015).

Values joined by “and” are separate entries in the source; they are usually repeats but may differ in a detail not shown here. Equal values may be shown once.

Data set [1] deals with HIV-1 strain NL4-3. The data set is described as follows: Anti-HIV-1 luciferase indicator assay in MT2 cells, NL4-3. The class given is cell-based. To be noted: viral strain NL4-3. Here is the method:
(§1) Compound was dissolved in DMSO to make 30 mM stock. Then the 30 mM stock is further diluted to 4 mM using DMSO. The 4 mM stock was used as the top concentration to carry out an 11-point, 3-fold dilution scheme using DMSO in a 96-well plate to make the compound dose plate. Compounds in the dose plate were transferred to a new 96-well plate (working plate) containing PBS with 0.05% pluronic acid. From this working plate, the compound solution was transferred to the 384-well assay plates.
(§2) Control compounds used in compound control wells were prepared and added to assay plates individually.
(§3) MT2 cells were mixed with HIV-1 strain NL4-3 (or IIIB, or CNHN24) and the cell/virus mixture was added to the aforementioned antivirus assay plates. After incubation in a 37° C., 5% CO2 incubator, the supernatant from the assay plate was transferred to a new 384-well plate containing the indicator cells with a fire fly luciferase gene under HIV-1 LTR control. The expression level of luciferase was related to HIV-1 infectivity and was measured by Bright-Glo kit (Promega).
(§4) Therapeutic index (TI) was determined by taking ratio of CC50/IC50

Data set [2] has as its system HIV-1 strain IIIB. Put plainly: Anti-HIV-1 luciferase indicator assay in MT2 cells, IIIB. It is filed as cell-based. To be noted: viral strain II B; for IC50: read-out: IC50. The procedure: as §1, §2, §3, §4
For data set [3], the system named is HIV-1 strain CNHN24. Put plainly: Anti-HIV-1 luciferase indicator assay in MT2 cells, CNHN24. The class given is cell-based. To be noted: viral strain CNHN24; for IC50: read-out: IC50. The procedure: as §1, §2, §3, §4
Data set [4] can be described thus: in vitro. The class given is cell-based. To be noted: human, CC50. The procedure: as §1
(§5) For cytotoxicity assay the same amount of MT2 cells as in antivirus assay but without HIV-1 virus were added to the cytotoxicity plates. The cytotoxicity was measured by Cell Titer-Glo cell viability assay (Promega).

Data set [5] relates to MT2 cells. Put plainly: in vitro. It is filed as cell-based. To be noted: human. The procedure: as §1, §5
In data set [6] the test system is HIV-1 strain NL4-3. Put plainly: Anti-HIV-1 luciferase indicator assay in PBMC cells, NL4-3. To be noted: Human immunodeficiency virus 1, NL43, viral strain NL4-3. It is filed as cell-based. The procedure:
(§6) Compound was dissolved in DMSO to make 30 mM stock. Then the 30 mM stock was further diluted to 4 mM using DMSO. The 4 mM stock was used as the top concentration to carry out an 11-point, 3-fold dilution scheme using DMSO in a 96-well plate to make the compound dose plate. Compounds in the dose plate were transferred to a new 96-well plate (working plate) containing PBS with 0.05% pluronic acid. From this working plate the compound solution was transferred to the 384-well assay plates.
(§7) Control compounds for cpd control wells were prepared and added to assay plates individually.
(§8) PBMC cells were isolated from human whole blood using Histopaque-1077 (Sigma, #10771) and frozen down and kept in liquid nitrogen tank. Two days before the assay PBMC was recovered and cultured in medium containing PHA-P (Sigma, #L1668). On the day of assay PBMC cells were pelleted down and resuspended in medium containing IL-2 (Sigma, #I7908), then the cells were mixed with HIV-1 strain NL4-3, MOI=0.01 (or IIIB, or CNHN24) and the cell/virus mixture was added to the aforementioned antivirus assay plates. […] The expression level of luciferase was related to HIV-1 infectivity and was measured by Bright-Glo kit (Promega).

For data set [7], the system named is HIV-1 strain IIIB. The data set is described as follows: Anti-HIV-1 luciferase indicator assay in PBMC cells, IIIB. It is filed as cell-based. To be noted: Human immunodeficiency virus 1, IIIB, viral strain II B. Here is the method:
as §6, §7, §8

The test system of data set [8] is HIV-1 strain CNHN24. The data set is described as follows: Anti-HIV-1 luciferase indicator assay in PBMC cells, CNHN24. The class given is cell-based. To be noted: Human immunodeficiency virus 1, viral strain CNHN24. Here is the method:
as §6, §7, §8

Data set [9] is described as follows: in vitro. The class given is cell-based. To be noted: human. The procedure:
as §6
For the cytotoxicity assay, the same amount of PBMC cells as in the antivirus assay but without the HIV-1 virus, was added to the cytotoxicity plates. The cytotoxicity was measured by a CellTiter-Glo cell viability assay (Promega).

The mark [10] stands for this setting: Human immunodeficiency virus 1, IIIB, MT2, MT2 cells.
[11] abbreviates: Human immunodeficiency virus 1, MT2, MT2 cells.
The mark [12] stands for this setting: Human immunodeficiency virus 1, NL43, MT2, MT2 cells, read-out: IC50.

For orientation: IC50 means the concentration that gives 50% inhibition. By CC50 is commonly meant the concentration that lowers cell viability or growth by half. Low readings indicate harm at low concentration, high ones better tolerance by the cells. For the compound `C=C(C)[C@@H]1CC[C@]2(C(=O)N[C@@H]3C[C@H](C(=O)N4CCCCC4)C3(C)C)CC[C@]3(C)[C@H](CC[C@@H]4[C@@]5(C)CC[C@H](OC(=O)CC(C)(C)C(=O)O)C(C)(C)[C@@H]5CC[C@]43C)[C@@H]12` [Example 48, 4-((1R,3aS,5aR,5bR,7aR,9S,11aR,11bR,13aR,13bR)-3a-((1R,3S)-2,2-dimethyl-3-(piperidine-1-carbonyl)cyclobutylcarbamoyl)-5a,5b,8,8,11a-pentamethyl-1-(prop-1-en-2-yl)icosahydro-1H-cyclopenta[a]chrysen-9-yloxy)-2,2-dimethyl-4-oxobutanoic acid], the 50% inhibitory concentration (IC50) was 9 nM in data set [1] (Human immunodeficiency virus 1, NL43, MT2, MT2 cells); 17 nM in data set [1] (MT2 cells, read-out: IC50); 18 nM in data set [2] (setting [10]); 25 nM in [2] (MT2 cells); 11 nM in [3] (setting [11]); 21 nM in data set [3] (MT2 cells). The “TI / Safety Index (CC50/IC50)” value was 2072 and 1176 in data set [1] (MT2 cells); 1061 and 800 in [2] (MT2 cells). Also, the results for the cytotoxic concentration (CC50) in data set [4] and in [5] were greater than 20 µM and 20 µM, respectively.

Usually melting point stands for the temperature, or range, at which the solid turns liquid. `C=C(C)[C@@H]1CC[C@]2(C(=O)O)CC[C@]3(C)[C@H](CC[C@@H]4[C@@]5(C)CC[C@H](OC(=O)[C@H]6C[C@@H](C(=O)O)C6(C)C)C(C)(C)[C@@H]5CC[C@]43C)[C@@H]12` [Example 19, (1R,3aS,5aR,5bR,7aR,9S,11aR,11bR,13aR,13bR)-9-((1S,3R)-3-carboxy-2,2-dimethylcyclobutanecarbonyloxy)-5a,5b,8,8,11a-pentamethyl-1-(prop-1-en-2-yl)icosahydro-1H-cyclopenta[a]chrysene-3a-carboxylic acid] had a melting point of 308 to 310 °C. Moreover, the IC50 in data set [1] (setting [12]) came to 72 nM. Besides, in data set [1] (MT2 cells), the “TI / Safety Index (CC50/IC50)” value is 277. Further, the 50% inhibitory concentration (IC50) in data set [2] (setting [10]) was 21 nM. For the same compound, the “TI / Safety Index (CC50/IC50)” value in [2] (MT2 cells) stood at 952. The IC50 in data set [3] (setting [11]) came out at 26 nM. Moreover, the “TI / Safety Index (CC50/IC50)” value in data set [3] (MT2 cells) turned out to be 769. The compound also displayed a CC50 in [4] of 20 µM.

Regarding `C=C(C)[C@@H]1CC[C@]2(C(=O)N[C@@H]3C[C@H](C(=O)N4CCCC4)C3(C)C)CC[C@]3(C)[C@H](CC[C@@H]4[C@@]5(C)CC[C@H](OC(=O)CC(C)(C)C(=O)O)C(C)(C)[C@@H]5CC[C@]43C)[C@@H]12` [Example 45], the half-inhibitory concentration (IC50) in [1] (setting [12]) came to 17 nM; in [2] (setting [10]), 25 nM; in [3] (setting [11]), 22 nM; in data set [6], 17 nM; in data set [7] it was 25 nM; in data set [8] it was 22 nM. In addition, the entries for the “TI / Safety Index (CC50/IC50)” value in data set [1] (MT2 cells), in data set [2] (MT2 cells) and in [3] (MT2 cells) were 1177, 800 and 800, respectively. The values for the CC50 in [4] and in [9] were 20 µM and greater than 20 µM, respectively.
